Measurements reported in US20190064177A1, “INCORPORATING COMPETITIVE BINDING INFORMATION INTO MOLECULAR ARRAY ANALYSIS TO GENERATE FUNCTION NETWORKS OF INTERACTIONS” (ARIZONA BOARD OF REGENTS ON BEHALF OF ARIZONA STATE …, priority 2017, published 2019).

How the values were obtained:
[1] = system: diaphorase; test: fluorescently labeled diaphorase binding to peptide array with or without excess FAD; details: for 1 microM FAD (array fluorescence of bound diaphorase) / 1 micro no FAD (array fluorescence of bound diaphorase): 1 micromolar labeled diaphorase; for 1 microM FAD (array fluorescence of bound diaphorase) / 10 microM FAD (array fluorescence of bound diaphorase): excess FAD present; for 1 microM FAD (array fluorescence of bound diaphorase) / 1 micro no FAD (array fluorescence of bound diaphorase) / 10 microM FAD (array fluorescence of bound diaphorase) / 10 microM no FAD (array fluorescence of bound diaphorase): 65535 is detector saturation; for 10 microM FAD (array fluorescence of bound diaphorase) / 10 microM no FAD (array fluorescence of bound diaphorase): 10 micromolar labeled diaphorase; for 1 microM noFAD/FAD / 10 microM noFAD/FAD: ratio of binding without FAD to binding with FAD; for 1 microM noFAD/FAD / Meas. ratio: 1 micromolar diaphorase; for 10 microM noFAD/FAD: 10 micromolar diaphorase; for Meas. ratio: ratio without/with FAD calculated from measured binding values
How it was run: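 Fluorescently labeled diaphorase, at 1 and 10 micromolar, bound to an array of about 126,000 peptides (16 amino acids; C, I, M, T omitted; GSG linker), with or without excess FAD. Fluorescence per feature scanned; 65535 marks detector saturation.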

[2] = biological target: Diaphorase; test: peptide array, 1 uM labeled diaphorase, no FAD
[3] = biological target: Diaphorase; test: peptide array, 10 uM labeled diaphorase, no FAD
[4] = biological target: Diaphorase; test: peptide array, 1 uM labeled diaphorase, with FAD
[5] = biological target: Diaphorase; test: peptide array, 10 uM labeled diaphorase, with FAD
[6] = biological target: Diaphorase; test: peptide array, 1 uM diaphorase, binding without FAD / with FAD
[7] = biological target: Diaphorase; test: peptide array, 10 uM diaphorase, binding without FAD / with FAD

RPLQVQRGGSG [array peptide with C-terminal GSG linker]
1 microM FAD (array fluorescence of bound diaphorase) [1]: 14421.5
1 micro no FAD (array fluorescence of bound diaphorase) [1]: 5406
10 microM FAD (array fluorescence of bound diaphorase) [1]: 41059.5
10 microM no FAD (array fluorescence of bound diaphorase) [1]: 53243
1 microM noFAD/FAD [1]: 0.3749
10 microM noFAD/FAD [1]: 1.297
Meas. ratio [1]: 0.37

WLDLGVFPYQHLGSG [array peptide with C-terminal GSG linker]
1 microM FAD (array fluorescence of bound diaphorase) [1]: 3433.25
1 micro no FAD (array fluorescence of bound diaphorase) [1]: 2202
10 microM FAD (array fluorescence of bound diaphorase) [1]: 33610.5
10 microM no FAD (array fluorescence of bound diaphorase) [1]: 25700.5
1 microM noFAD/FAD [1]: 0.6414
10 microM noFAD/FAD [1]: 0.7647
Meas. ratio [1]: 0.64

RWQYYNQKFGSG [array peptide with C-terminal GSG linker]
1 microM FAD (array fluorescence of bound diaphorase) [1]: 5458
1 micro no FAD (array fluorescence of bound diaphorase) [1]: 15697.5
10 microM FAD (array fluorescence of bound diaphorase) [1]: 65535
10 microM no FAD (array fluorescence of bound diaphorase) [1]: 65535
1 microM noFAD/FAD [1]: 2.876
10 microM noFAD/FAD [1]: 1
Meas. ratio [1]: 2.88

YRFQSGLPAKDGSG [array peptide with C-terminal GSG linker]
1 microM FAD (array fluorescence of bound diaphorase) [1]: 1489.75
1 micro no FAD (array fluorescence of bound diaphorase) [1]: 4041.25
10 microM FAD (array fluorescence of bound diaphorase) [1]: 20226.25
10 microM no FAD (array fluorescence of bound diaphorase) [1]: 50316.25
1 microM noFAD/FAD [1]: 2.713
10 microM noFAD/FAD [1]: 2.488
Meas. ratio [1]: 2.71

DANLFGYFKDGGS
Meas. ratio [1]: 0.70

VLAYKLQVDGSG [array peptide with C-terminal GSG linker]
Meas. ratio [1]: 0.68

PRSFGYNNVGGSG [array peptide with C-terminal GSG linker]
1 microM FAD (array fluorescence of bound diaphorase) [1]: 2525.5
1 micro no FAD (array fluorescence of bound diaphorase) [1]: 6842.5
10 microM FAD (array fluorescence of bound diaphorase) [1]: 40495.5
10 microM no FAD (array fluorescence of bound diaphorase) [1]: 65535
1 microM noFAD/FAD [1]: 2.709
10 microM noFAD/FAD [1]: 1.618
Meas. ratio [1]: 2.71

YSVDYWYQVDGSG [array peptide with C-terminal GSG linker]
1 microM FAD (array fluorescence of bound diaphorase) [1]: 10415
1 micro no FAD (array fluorescence of bound diaphorase) [1]: 1802.5
10 microM FAD (array fluorescence of bound diaphorase) [1]: 19218.25
10 microM no FAD (array fluorescence of bound diaphorase) [1]: 19784.75
1 microM noFAD/FAD [1]: 0.1731
10 microM noFAD/FAD [1]: 1.029
Meas. ratio [1]: 0.17

NHLLEGAFVSEGS
Meas. ratio [1]: 0.77

EGFGYLFAHVGGS
Meas. ratio [1]: 0.78

RYNLYKPSDGSG [array peptide with C-terminal GSG linker]
1 microM FAD (array fluorescence of bound diaphorase) [1]: 1245.75
1 micro no FAD (array fluorescence of bound diaphorase) [1]: 3569.5
10 microM FAD (array fluorescence of bound diaphorase) [1]: 18165
10 microM no FAD (array fluorescence of bound diaphorase) [1]: 50327.75
1 microM noFAD/FAD [1]: 2.865
10 microM noFAD/FAD [1]: 2.771
Meas. ratio [1]: 2.87

RAQYAQYLFGGSG [array peptide with C-terminal GSG linker]
1 microM FAD (array fluorescence of bound diaphorase) [1]: 3162
1 micro no FAD (array fluorescence of bound diaphorase) [1]: 8721.5
10 microM FAD (array fluorescence of bound diaphorase) [1]: 55433.5
10 microM no FAD (array fluorescence of bound diaphorase) [1]: 65535
1 microM noFAD/FAD [1]: 2.758
10 microM noFAD/FAD [1]: 1.182
Meas. ratio [1]: 2.76

PVPWRHVNYAHSG
Meas. ratio [1]: 0.69

RQAYLFGGSG [array peptide with C-terminal GSG linker]
1 microM FAD (array fluorescence of bound diaphorase) [1]: 4477
1 micro no FAD (array fluorescence of bound diaphorase) [1]: 14479.75
10 microM FAD (array fluorescence of bound diaphorase) [1]: 64033.5
10 microM no FAD (array fluorescence of bound diaphorase) [1]: 65535
1 microM noFAD/FAD [1]: 3.234
10 microM noFAD/FAD [1]: 1.023
Meas. ratio [1]: 3.23

HVYGLNLFDGSG [array peptide with C-terminal GSG linker]
Meas. ratio [1]: 0.72

EAVQKLLFSGSG [array peptide with C-terminal GSG linker]
1 microM FAD (array fluorescence of bound diaphorase) [1]: 2420
1 micro no FAD (array fluorescence of bound diaphorase) [1]: 1457.5
10 microM FAD (array fluorescence of bound diaphorase) [1]: 17702.75
10 microM no FAD (array fluorescence of bound diaphorase) [1]: 5389.5
1 microM noFAD/FAD [1]: 0.6023
10 microM noFAD/FAD [1]: 0.3044
Meas. ratio [1]: 0.60

RWYKNGGSG [array peptide with C-terminal GSG linker]
1 microM FAD (array fluorescence of bound diaphorase) [1]: 3658
1 micro no FAD (array fluorescence of bound diaphorase) [1]: 10176.5
10 microM FAD (array fluorescence of bound diaphorase) [1]: 46265.5
10 microM no FAD (array fluorescence of bound diaphorase) [1]: 64775
1 microM noFAD/FAD [1]: 2.782
10 microM noFAD/FAD [1]: 1.4
Meas. ratio [1]: 2.78

PQKSNHFHEAQKR
Meas. ratio [1]: 2.41

YRGAGKNKGGSG [array peptide with C-terminal GSG linker]
Meas. ratio [1]: 1.49

YWRFYANWAQLFG
Meas. ratio [1]: 2.56

PRYSGQYGGSG [array peptide with C-terminal GSG linker]
1 microM FAD (array fluorescence of bound diaphorase) [1]: 3234.25
1 micro no FAD (array fluorescence of bound diaphorase) [1]: 8432.75
10 microM FAD (array fluorescence of bound diaphorase) [1]: 45157.75
10 microM no FAD (array fluorescence of bound diaphorase) [1]: 65535
1 microM noFAD/FAD [1]: 2.607
10 microM noFAD/FAD [1]: 1.451
Meas. ratio [1]: 2.61

LLGFLGGSG [array peptide with C-terminal GSG linker]
1 microM FAD (array fluorescence of bound diaphorase) [1]: 4143.5
1 micro no FAD (array fluorescence of bound diaphorase) [1]: 2317.75
10 microM FAD (array fluorescence of bound diaphorase) [1]: 40264.25
10 microM no FAD (array fluorescence of bound diaphorase) [1]: 26253
1 microM noFAD/FAD [1]: 0.5594
10 microM noFAD/FAD [1]: 0.652
Meas. ratio [1]: 0.56

YNRNAKSSGGSG [array peptide with C-terminal GSG linker]
1 microM FAD (array fluorescence of bound diaphorase) [1]: 1546
1 micro no FAD (array fluorescence of bound diaphorase) [1]: 4014
10 microM FAD (array fluorescence of bound diaphorase) [1]: 18565.25
10 microM no FAD (array fluorescence of bound diaphorase) [1]: 41333.25
1 microM noFAD/FAD [1]: 2.596
10 microM noFAD/FAD [1]: 2.226
Meas. ratio [1]: 2.60

RWKYQKFNGGSG
fluorescence [2]: 10200
fluorescence [3]: 61300
fluorescence [4]: 3860
fluorescence [5]: 46200
noFAD/FAD [6]: 2.63
noFAD/FAD [7]: 1.33

RQYQKHSYAKFSGSG
fluorescence [2]: 6760
fluorescence [3]: 57200
fluorescence [4]: 2460
fluorescence [5]: 27300
noFAD/FAD [6]: 2.75
noFAD/FAD [7]: 2.1

YRFQSGLPAKDGSG
fluorescence [2]: 4040
fluorescence [3]: 50300
fluorescence [4]: 1490
fluorescence [5]: 20200
noFAD/FAD [6]: 2.71
noFAD/FAD [7]: 2.49

RFKYPLDGGSG
fluorescence [2]: 5760
fluorescence [3]: 55900
fluorescence [4]: 2200
fluorescence [5]: 30400
noFAD/FAD [6]: 2.62
noFAD/FAD [7]: 1.84

WRGFKFADGGSG
fluorescence [2]: 5650
fluorescence [3]: 58900
fluorescence [4]: 2160
fluorescence [5]: 31500
noFAD/FAD [6]: 2.62
noFAD/FAD [7]: 1.87
